Laboratory results from publication PMC12722964, “Immunogenicity risk assessment of peptide-related impurities identified in generic teriparatide products” (Frontiers in Immunology, 2025).
pIC50: −log10 of the molar value. Blank lines part the entries; values can stand above or below the substance they belong to. Ends that are not written are not given here.

Tests used:
[1] = Overall risk based on in silico and in vitro results; details: EpiMatrix and JanusMatrix scores compared with naïve donor T-cell assay
Description: Table 4 Overall risk based on in silico and in vitro results. | column: Overall risk

[2] = system: eight class II Supertype Alleles (HLA-DRB1); test: Class II HLA binding assay, summary over the panel of eight alleles; parameters: species or system human
Method: (§1) Class II HLA binding assays used in these studies measure the binding affinity of a target peptide to HLA-DRB1*0101, HLA-DRB1*0301, HLA-DRB1*0401, HLA-DRB1*0701, HLA-DRB1*0901, HLA-DRB1*1101, HLA-DRB1*1301, and HLA-DRB1*1501. The HLA binding assay was originally described by Steere et al. ([21]) and adapted by EpiVax ([22], [23]). Briefly, unlabeled test peptides were incubated overnight to equilibrium with a soluble HLA-DR molecule (Benaroya Research Institute, Seattle, WA, USA) and a biotinylated, allele-specific competitor peptide of known binding affinity. The binding reaction was then neutralized with a buffered pH change, and the peptide-HLA complexes were transferred to a 96-well plate coated with a pan-HLA-DR antibody, clone L243 (BioLegend, San Diego, CA, United States), and incubated overnight. The following day, plates were resolved with the addition of europium-labeled streptavidin (Perkin-Elmer, Waltham, MA, USA). An indirect measure of binding was determined by time-resolved fluorescence. Each peptide was evaluated in triplicate over a range of seven concentrations. The percent inhibition values for each experimental peptide across this concentration range were used to calculate an IC50, the concentration at which the peptide inhibits 50% of the labeled competitor peptide.
Following the in silico analysis, epitope binding predictions by EpiMatrix were evaluated in vitro by measuring the binding affinity of each impurity peptide relative to the corresponding N- or C-terminal portion of the TPT API, in vitro. The class II HLA-DRB1 binding assay was adapted from an assay originally described by Steere et al. ([21]) that provides an indirect measurement of peptide-HLA affinity. Class II HLA binding peptides typically range in length from 12–20 amino acids; however, the core HLA binding region is nine amino acids. The class II HLA binding groove is open-ended, and the additional flanking residues on either end of the core binding motif stabilize the peptide: HLA binding interaction. […]

B cells = system: B cells; parameters: method as in 2 sources, one per row (each row's own in cited_ref): ref Howard et al. ([38]) ||| ref [37] = [37]; 37 Howard KE . ( 2025 ). Alternative models: from humanized mice to microphysiological systems and beyond , in: Scientific and Regulatory Considerations for Assessment of Immunogenicity Risk for Gener; details: cited from earlier work
HLA-DRB1*1101 = HLA-DRB1*1101 (Homo sapiens, UniProt P01903+P01911, A100R/A169T/A87E/I96F/K41T/L162R/M171V/P40S/Q125H/Q178H/Q39Y/Q99D/R42S/S66Y/T262R/V115G/W38E); test: Class II HLA binding assay; details: Figure 6; shortened peptides of Table 3; category by IC50; read-out: HLA binding affinity category, DRB1*1101
Chain of HLA-DRB1*1101 (P01903 26-254 limits assumed, other chains not shown): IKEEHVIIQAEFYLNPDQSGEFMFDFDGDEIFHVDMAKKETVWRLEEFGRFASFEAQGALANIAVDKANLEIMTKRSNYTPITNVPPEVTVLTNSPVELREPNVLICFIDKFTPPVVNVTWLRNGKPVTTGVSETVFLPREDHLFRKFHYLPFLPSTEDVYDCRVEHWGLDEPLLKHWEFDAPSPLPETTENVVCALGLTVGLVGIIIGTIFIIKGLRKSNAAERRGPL
Method: as §1
(§2) Following the in silico analysis, epitope binding predictions by EpiMatrix were evaluated in vitro by measuring the binding affinity of each impurity peptide relative to the corresponding N- or C-terminal portion of the TPT API, in vitro. The class II HLA-DRB1 binding assay was adapted from an assay originally described by Steere et al. ([21]) that provides an indirect measurement of peptide-HLA affinity. Class II HLA binding peptides typically range in length from 12–20 amino acids; however, the core HLA binding region is nine amino acids. The class II HLA binding groove is open-ended, and the additional flanking residues on either end of the core binding motif stabilize the peptide: HLA binding interaction. Targeted binding motifs were properly centered within the shorter length peptides synthesized for these binding studies (Table 3).

HLA-DRB1*0101 = biological target: T1, HLA-DRB1*0101 (Homo sapiens, UniProt P01903+P01911, A100R/D57E/F55L/F60I/F76Y/I96L/L162R/M171V/P40L/Q125E/R42F/V115G/Y59C); test: Class II HLA binding assay; details: Figure 6; shortened peptides of Table 3; category by IC50; read-out: HLA binding affinity category, DRB1*0101
T1 construct: incubated overnight to equilibrium with a soluble HLA-DR molecule; purchased Benaroya Research Institute, Seattle, WA, USA
Method: as §1, §2

HLA-DRB1*0401 = biological target: T2, HLA-DRB1*0401 (Homo sapiens, UniProt P01903+P01911, A100K/A169T/F76Y/I96L/K127E/L162R/M171V/N62H/P40V/Q125Y/R42H/S133A/S149N/S66Y/V115G/V209L/W38E); test: Class II HLA binding assay; details: Figure 6; shortened peptides of Table 3; category by IC50; read-out: HLA binding affinity category, DRB1*0401
T2 construct: incubated overnight to equilibrium with a soluble HLA-DR molecule; purchased Benaroya Research Institute, Seattle, WA, USA
Method: as §1, §2

HLA-DRB1*1301 = HLA-DRB1*1301 (Homo sapiens, UniProt P01903+P01911, A100E/A169T/K41T/L162R/M171V/P40S/Q125H/Q178H/Q39Y/Q99D/R42S/S66N/T262R/W38E/Y61H); test: Class II HLA binding assay; details: Figure 6; shortened peptides of Table 3; category by IC50; read-out: HLA binding affinity category, DRB1*1301
Method: as §1, §2

HLA-DRB1*0701 = HLA-DRB1*0701 (Homo sapiens, UniProt P01903+P01911, A100R/A102G/A103Q/D57E/D86V/E43K/F76Y/K127E/L162R/M171V/P40G/Q125H/Q99D/R33Q/R42Y/R54Q/S133A/S66F/T210M/V115G/Y107V/Y59L/Y89S); test: Class II HLA binding assay; details: Figure 6; shortened peptides of Table 3; category by IC50; read-out: HLA binding affinity category, DRB1*0701
Method: as §1, §2

HLA-DRB1*0901 = HLA-DRB1*0901 (Homo sapiens, UniProt P01903+P01911, A100R/A103E/D57H/D86V/F55Y/F60I/F76Y/I96F/K127E/L162R/M171V/P40D/Q125H/Q99R/R33Q/R42F/S133A/S66N/T210M/V115G/W38K/Y107V/Y59G/Y89S); test: Class II HLA binding assay; details: Figure 6; shortened peptides of Table 3; category by IC50; read-out: HLA binding affinity category, DRB1*0901
Method: as §1, §2

HLA-DRB1*0301 = biological target: T3, HLA-DRB1*0301 (Homo sapiens, UniProt P01903+P01911, A100K/A102G/A103R/A169T/F55Y/I96L/K41T/L162R/M171V/P40S/Q125H/Q178H/Q39Y/R42S/S66N/T106N/T262R/W38E/Y61H); test: Class II HLA binding assay; details: Figure 6; shortened peptides of Table 3; category by IC50; read-out: HLA binding affinity category, DRB1*0301
T3 construct: incubated overnight to equilibrium with a soluble HLA-DR molecule; purchased Benaroya Research Institute, Seattle, WA, USA
Method: as §1, §2

HLA-DRB1*1501 = biological target: T4, HLA-DRB1*1501 (Homo sapiens, UniProt P01903+P01911); test: Class II HLA binding assay; details: Figure 6; shortened peptides of Table 3; category by IC50; read-out: HLA binding affinity category, DRB1*1501
T4 construct: incubated overnight to equilibrium with a soluble HLA-DR molecule; purchased Benaroya Research Institute, Seattle, WA, USA
Method: as §1, §2

[3] = human, in vivo; cited from earlier work
Description: Teriparatide (TPT), sold under the brand name Forteo®, is a 34-amino acid peptide drug produced by recombinant DNA (rDNA) technology. Synthetic peptide versions of the drug have recently been approved for the generic drug market. TPT consists of the biologically active N-terminal 34 amino acids of human parathyroid hormone (PTH) (Figure 1) and is approved in the USA for the treatment of postmenopausal osteoporosis in patients at high risk of bone fracture. Since TPT’s sequence is identical to that of the N-terminus of PTH, the development of antibodies that cross-react with the endogenous hor ... || TPT has a history of having low immunogenicity in the clinic, with only 2.8% of treated patients developing antidrug antibodies after 12 months of treatment. Consistent with this, TPT induced IFN-γ production by responding T cells in fewer than 20% of donor cell preparations ex vivo. However, because different impurities can arise from different methods of peptide synthesis and production, it is important to understand whether any peptide-related impurities could contribute to the immunogenicity risk of generic TPT. Here, we performed an immunogenicity risk assessment for several peptide-relat ...

Substance: SVSEIQLMHN–GKHLNSMERVEWLRKKLQDVHNF [DES-LEU11_TERIPARATIDE, observed teriparatide impurity, deletion of Leu11]
Overall risk [1]: High

Substance: SVSEIQ–MHNLGKHLNSMERVEWLRKKLQDVHNF [DES-LEU7_TERIPARATIDE, observed teriparatide impurity, deletion of Leu7]
binding affinity compared to the corresponding region of the API ([2]; impurity peptides alongside N-term or C-term TPT API peptide): decreased or equivalent binding affinity
Overall risk [1]: Medium

Substance: salmon calcitonin [SCT]
long-term memory B cells and plasma cells (B cells; SCT-treated mice compared to TPT, ref [37]): Increased numbers

Substance: SVSEIQLMHNL–KHLNSMERVEWLRKKLQDVHNF [DES-GLY12_TERIPARATIDE, theoretical teriparatide impurity predicted by WhIM, deletion of Gly12]
Overall risk [1]: High

Substance: SVSEIQLMHNLGKHLNSMERVEWLRKK–QDVHNF [DES-LEU28_TERIPARATIDE, observed teriparatide impurity, deletion of Leu28]
Overall risk [1]: Low

Substance: SVSEIQLM–NLGKHLNSMERVEWLRKKLQDVHNF [DES-HIS9_TERIPARATIDE, observed teriparatide impurity, deletion of His9]
Overall risk [1]: High

Substance: MERVEWLRK(Ac)KLQDVHNF [LYS-AC26_TPT (18-34)]
pIC50 (HLA-DRB1*1101): < 4.00
pIC50 (HLA-DRB1*0101): < 4.00
pIC50 (HLA-DRB1*0401): < 4.00
pIC50 (HLA-DRB1*1301): < 4.00
pIC50 (HLA-DRB1*0701): < 4.00
pIC50 (HLA-DRB1*0901): < 4.00
pIC50 (HLA-DRB1*0301): < 4.00
pIC50 (HLA-DRB1*1501): < 4.00

Substance: MERVEWLRKKQDVHNF [DES-LEU28_TPT (18-33)]
pIC50 (HLA-DRB1*1101): 5.00 to 6.00
pIC50 (HLA-DRB1*0101): < 4.00
pIC50 (HLA-DRB1*0401): < 4.00
pIC50 (HLA-DRB1*1301): 6.00 to 7.00
pIC50 (HLA-DRB1*0701): < 4.00
pIC50 (HLA-DRB1*0901): < 4.00
pIC50 (HLA-DRB1*0301): < 4.00
pIC50 (HLA-DRB1*1501): ≤ 4.00

Substance: SVSEIQLMHNLLGKHLNSMERVEWLRKKLQDVHNF [ENDO-LEU11_TERIPARATIDE, theoretical teriparatide impurity predicted by WhIM, duplication of Leu11]
Overall risk [1]: High

Substance: SVSEIQLMHNLG–HLNSMERVEWLRKKLQDVHNF [DES-LYS13_TERIPARATIDE, observed teriparatide impurity, deletion of Lys13]
Overall risk [1]: High

Now from value to substance, other results behind:

Overall risk [1]: High
Substance: SVSEIQLMHNLGK–LNSMERVEWLRKKLQDVHNF [DES-HIS14_TERIPARATIDE, observed teriparatide impurity, deletion of His14]

classification in the HLA binding assays ([2]; shorter peptide with the modification centered): nonbinder
Overall risk [1]: High
Substance: SVSEIQLMHNLGKHLNSMERVEWLR(K-Ac)KLQDVHNF [LYS-AC26_TERIPARATIDE, observed teriparatide impurity, Lys26 acetylated]

number of the eight class II Supertype Alleles bound ([2]; of eight alleles evaluated, negligible to high affinity counted as bound): three
pIC50 (HLA-DRB1*1101): 6.00 to 7.00
pIC50 (HLA-DRB1*0101): < 4.00
pIC50 (HLA-DRB1*0401): < 4.00
pIC50 (HLA-DRB1*1301): 5.00 to 6.00
pIC50 (HLA-DRB1*0701): < 4.00
pIC50 (HLA-DRB1*0901): < 4.00
pIC50 (HLA-DRB1*0301): < 4.00
pIC50 (HLA-DRB1*1501): ≤ 4.00
Substance: MERVEWLRKKLQDVHNF-OH [API_TPT (18-34) C-term]

Overall risk [1]: Low
Substance: SVSEIQLMHNLGKHLNSMERVEWLRKKLQDVHNF [TERIPARATIDE, teriparatide]
treated patients developing antidrug antibodies (ADA) [3]: 2.8%
immunogenicity (as measured by activation of B cells) (B cells; at multiple doses, in contrast to SCT, ref Howard et al. ([38])): lower immunogenicity
